# Assay results from ChEMBL document CHEMBL1201862, “PubChem BioAssay data set” (2004).
# Activity calls are given as the source filed them.
# Legend:
# Cytochrome P450 2C19 = Cytochrome P450 2C19 (Homo sapiens, UniProt P33261); test: qHTS Assay for Inhibitors and Substrates of Cytochrome P450 2C19. [Related pubchem assays: 410 ]; format: ADME; settings: read-out: Potency
# Large T antigen = Large T antigen (Simian virus 40, UniProt P03070); format: functional, Betapolyomavirus macacae;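 note: Confirmatory-stage PubChem screen for compounds that inhibit SV40 T antigen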
# [1] = molecular target: Induced myeloid leukemia cell differentiation protein Mcl-1 (Homo sapiens, UniProt Q07820); format: functional
# Chain of Induced myeloid leukemia cell differentiation protein Mcl-1 (Q07820 whole entry): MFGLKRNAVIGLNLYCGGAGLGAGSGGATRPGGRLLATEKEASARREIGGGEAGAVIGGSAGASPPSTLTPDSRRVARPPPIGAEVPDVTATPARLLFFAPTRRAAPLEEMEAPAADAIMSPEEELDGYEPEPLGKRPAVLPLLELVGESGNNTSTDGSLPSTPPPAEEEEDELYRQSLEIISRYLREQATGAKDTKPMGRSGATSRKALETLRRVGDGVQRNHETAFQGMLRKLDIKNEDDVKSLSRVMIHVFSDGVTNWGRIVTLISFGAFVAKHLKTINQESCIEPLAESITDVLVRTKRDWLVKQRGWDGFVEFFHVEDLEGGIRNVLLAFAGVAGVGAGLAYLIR
# Estrogen receptor = molecular target: T1, Estrogen receptor (Homo sapiens, UniProt P03372);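 note: potency for inhibiting coactivator peptide recruitment to the receptor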
# T1 sequence (P03372 whole entry): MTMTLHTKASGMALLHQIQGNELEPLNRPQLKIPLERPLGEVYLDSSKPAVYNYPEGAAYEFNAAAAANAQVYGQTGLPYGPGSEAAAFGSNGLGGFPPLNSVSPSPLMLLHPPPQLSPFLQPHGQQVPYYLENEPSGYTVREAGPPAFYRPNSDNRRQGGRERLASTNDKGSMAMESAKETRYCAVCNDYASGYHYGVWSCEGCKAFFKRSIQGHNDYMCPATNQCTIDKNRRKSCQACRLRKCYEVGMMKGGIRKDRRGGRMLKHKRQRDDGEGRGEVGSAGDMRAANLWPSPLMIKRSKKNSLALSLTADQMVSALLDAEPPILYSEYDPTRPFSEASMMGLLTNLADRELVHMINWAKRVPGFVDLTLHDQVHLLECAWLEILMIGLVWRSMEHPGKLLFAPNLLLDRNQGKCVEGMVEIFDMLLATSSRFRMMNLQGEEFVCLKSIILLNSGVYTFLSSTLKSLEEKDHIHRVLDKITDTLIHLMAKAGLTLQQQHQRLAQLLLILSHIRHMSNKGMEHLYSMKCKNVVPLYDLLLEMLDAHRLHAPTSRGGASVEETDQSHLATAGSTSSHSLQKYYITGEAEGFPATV
# [2] = molecular target: Voltage-dependent T-type calcium channel subunit alpha-1H (Homo sapiens, UniProt O95180); format: functional;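 note: channel activity triggered by adding a high calcium stimulation buffer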
# Chain of Voltage-dependent T-type calcium channel subunit alpha-1H (O95180 whole entry): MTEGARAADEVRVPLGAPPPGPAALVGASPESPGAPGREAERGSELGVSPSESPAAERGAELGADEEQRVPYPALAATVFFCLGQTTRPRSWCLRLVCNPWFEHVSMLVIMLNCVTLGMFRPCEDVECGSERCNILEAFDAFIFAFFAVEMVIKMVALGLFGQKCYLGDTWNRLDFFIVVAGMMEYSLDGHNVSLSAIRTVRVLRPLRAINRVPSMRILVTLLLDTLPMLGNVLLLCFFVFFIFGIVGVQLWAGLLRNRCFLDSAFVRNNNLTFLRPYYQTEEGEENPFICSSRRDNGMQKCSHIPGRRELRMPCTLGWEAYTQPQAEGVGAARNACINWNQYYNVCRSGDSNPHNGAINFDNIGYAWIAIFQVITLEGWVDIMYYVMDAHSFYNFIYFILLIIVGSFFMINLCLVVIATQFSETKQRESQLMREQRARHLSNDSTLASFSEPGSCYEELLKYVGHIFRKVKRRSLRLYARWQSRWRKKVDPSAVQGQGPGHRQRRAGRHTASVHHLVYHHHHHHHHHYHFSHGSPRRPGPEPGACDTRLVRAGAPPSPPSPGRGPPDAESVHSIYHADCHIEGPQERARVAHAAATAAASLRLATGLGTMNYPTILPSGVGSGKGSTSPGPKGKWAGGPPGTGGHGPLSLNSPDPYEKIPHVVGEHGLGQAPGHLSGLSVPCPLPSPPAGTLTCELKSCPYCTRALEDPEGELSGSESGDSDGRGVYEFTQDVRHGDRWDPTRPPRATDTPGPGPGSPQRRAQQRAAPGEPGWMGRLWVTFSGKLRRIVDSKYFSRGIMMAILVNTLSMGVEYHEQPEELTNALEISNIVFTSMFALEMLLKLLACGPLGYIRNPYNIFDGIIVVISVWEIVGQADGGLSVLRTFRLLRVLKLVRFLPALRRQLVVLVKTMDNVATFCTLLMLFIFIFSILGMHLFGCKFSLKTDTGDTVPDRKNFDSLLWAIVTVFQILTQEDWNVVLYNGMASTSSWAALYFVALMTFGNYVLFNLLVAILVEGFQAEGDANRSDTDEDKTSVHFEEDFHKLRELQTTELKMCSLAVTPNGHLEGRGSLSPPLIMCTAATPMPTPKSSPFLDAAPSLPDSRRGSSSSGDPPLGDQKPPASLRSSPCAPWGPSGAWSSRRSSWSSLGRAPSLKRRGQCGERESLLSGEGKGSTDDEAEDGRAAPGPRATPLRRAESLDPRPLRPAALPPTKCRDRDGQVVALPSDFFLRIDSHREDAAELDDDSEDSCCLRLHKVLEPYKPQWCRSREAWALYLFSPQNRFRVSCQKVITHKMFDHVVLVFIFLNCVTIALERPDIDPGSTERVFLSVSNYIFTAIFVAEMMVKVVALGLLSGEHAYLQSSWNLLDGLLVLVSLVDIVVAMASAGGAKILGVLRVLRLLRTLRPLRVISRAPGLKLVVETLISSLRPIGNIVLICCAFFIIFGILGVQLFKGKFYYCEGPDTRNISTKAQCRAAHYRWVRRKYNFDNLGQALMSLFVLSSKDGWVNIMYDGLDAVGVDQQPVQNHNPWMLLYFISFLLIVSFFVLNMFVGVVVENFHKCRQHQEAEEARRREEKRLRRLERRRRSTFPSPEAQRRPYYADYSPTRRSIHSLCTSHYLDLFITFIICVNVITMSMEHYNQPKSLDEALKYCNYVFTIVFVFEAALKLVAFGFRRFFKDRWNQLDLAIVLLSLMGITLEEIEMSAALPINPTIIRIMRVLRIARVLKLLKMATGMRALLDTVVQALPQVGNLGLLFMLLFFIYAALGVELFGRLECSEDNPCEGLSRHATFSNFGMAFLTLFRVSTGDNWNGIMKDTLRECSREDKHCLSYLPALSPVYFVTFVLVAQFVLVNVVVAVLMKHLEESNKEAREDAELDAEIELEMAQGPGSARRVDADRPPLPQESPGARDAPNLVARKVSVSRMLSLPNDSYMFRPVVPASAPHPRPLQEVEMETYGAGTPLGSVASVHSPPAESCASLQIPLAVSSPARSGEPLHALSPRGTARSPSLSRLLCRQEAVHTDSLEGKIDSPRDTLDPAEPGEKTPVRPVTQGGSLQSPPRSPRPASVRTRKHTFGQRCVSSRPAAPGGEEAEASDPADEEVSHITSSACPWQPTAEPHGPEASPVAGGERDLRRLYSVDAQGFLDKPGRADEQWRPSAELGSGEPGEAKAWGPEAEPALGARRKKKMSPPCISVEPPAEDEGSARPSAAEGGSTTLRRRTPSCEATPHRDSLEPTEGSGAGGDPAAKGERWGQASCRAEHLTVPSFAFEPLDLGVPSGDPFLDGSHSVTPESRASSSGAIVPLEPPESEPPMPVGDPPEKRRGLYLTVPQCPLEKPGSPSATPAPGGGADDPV
# [3] = molecular target: T2, Trace amine-associated receptor 1 (Homo sapiens, UniProt Q96RJ0); test: Fluorescence-based cell-based high throughput dose response assay to identify agonists of the human trace amine associated receptor 1 (TAAR1).; format: functional
# T2 sequence (Q96RJ0 whole entry): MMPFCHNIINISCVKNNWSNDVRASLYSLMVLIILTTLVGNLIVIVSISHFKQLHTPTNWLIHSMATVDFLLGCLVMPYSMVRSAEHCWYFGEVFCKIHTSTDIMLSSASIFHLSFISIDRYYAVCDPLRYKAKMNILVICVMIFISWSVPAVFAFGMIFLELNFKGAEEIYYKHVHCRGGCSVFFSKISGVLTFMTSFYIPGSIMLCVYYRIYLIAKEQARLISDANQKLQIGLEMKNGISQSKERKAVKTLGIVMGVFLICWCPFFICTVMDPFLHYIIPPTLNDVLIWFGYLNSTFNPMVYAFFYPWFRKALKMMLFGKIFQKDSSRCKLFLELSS
# cells [4] = format: functional, cell-based
# [5] = molecular target: T2, Trace amine-associated receptor 1; test: Counterscreen for agonists of the human trace amine associated receptor 1 (hTAAR1): Fluorescence-based cell-based high throughput dose response assay to identify hTAAR1 agonist that also desensitize TAAR1 receptor response.; format: functional
# cells [6] = format: functional, cell-based; remark: listed apart in the source
# cells [7] = test: cells
# [8] = NIH-3T3 fibroblast cytotoxicity, dose response, cytotoxicity control, cell-based, fluorescence, Alamar Blue, secondary assay (AID 2327); format: functional;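 note: NIH-3T3 mouse fibroblasts cultured with fluconazole at 8 µg/mL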
# [9] = viability of uninfected HEp-2 cells – cell-based, HTS, cytotoxicity control for RSV inhibitor project, dose response (AID 2410); format: functional; settings: human respiratory syncytial virus
# [10] = fluconazole-exposed Candida albicans growth modulators – fluorescence, retest, confirmation (AID 2467); format: functional, cell-based
# [11] = molecular target: T3, Acyl-homoserine lactone acylase PvdQ (Pseudomonas aeruginosa (strain LESB58), UniProt Q9I194); test: PvdQ acylase enzyme activity blockers – biochemical, fluorescence, plate reader and imaging, cherry-picks, dose response (AID 493231)
# T3 sequence (Q9I194 whole entry): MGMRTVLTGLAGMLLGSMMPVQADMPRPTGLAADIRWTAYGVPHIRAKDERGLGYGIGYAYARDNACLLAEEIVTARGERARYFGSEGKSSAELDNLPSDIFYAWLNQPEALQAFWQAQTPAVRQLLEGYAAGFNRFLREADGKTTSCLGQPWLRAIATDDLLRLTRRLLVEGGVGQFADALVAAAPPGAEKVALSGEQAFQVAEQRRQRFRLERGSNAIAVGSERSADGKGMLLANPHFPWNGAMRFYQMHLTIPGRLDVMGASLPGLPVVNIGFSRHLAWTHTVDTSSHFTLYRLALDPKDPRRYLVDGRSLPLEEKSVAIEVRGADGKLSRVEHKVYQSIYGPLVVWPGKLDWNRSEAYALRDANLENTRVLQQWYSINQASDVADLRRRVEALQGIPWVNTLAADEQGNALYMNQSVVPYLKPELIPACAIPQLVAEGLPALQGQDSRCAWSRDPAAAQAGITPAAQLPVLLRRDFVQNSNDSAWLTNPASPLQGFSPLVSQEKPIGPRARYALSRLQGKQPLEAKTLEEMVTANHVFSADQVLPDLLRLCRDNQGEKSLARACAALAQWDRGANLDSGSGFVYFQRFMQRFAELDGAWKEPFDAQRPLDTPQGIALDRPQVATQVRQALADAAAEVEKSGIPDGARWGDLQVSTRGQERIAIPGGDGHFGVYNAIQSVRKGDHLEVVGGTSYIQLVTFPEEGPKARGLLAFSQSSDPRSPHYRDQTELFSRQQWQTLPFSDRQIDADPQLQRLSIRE
# [12] = molecular target: DNA dC->dU-editing enzyme APOBEC-3G (Homo sapiens, UniProt Q9HC16); test: Dose Response confirmation of small molecule APOBEC3G DNA Deaminase Inhibitors via a fluorescence-based single-stranded DNA deaminase assay. [Related pubchem assays (depositor defined):AID493012, AID493028]; format: functional
# Chain of DNA dC->dU-editing enzyme APOBEC-3G (Q9HC16 whole entry): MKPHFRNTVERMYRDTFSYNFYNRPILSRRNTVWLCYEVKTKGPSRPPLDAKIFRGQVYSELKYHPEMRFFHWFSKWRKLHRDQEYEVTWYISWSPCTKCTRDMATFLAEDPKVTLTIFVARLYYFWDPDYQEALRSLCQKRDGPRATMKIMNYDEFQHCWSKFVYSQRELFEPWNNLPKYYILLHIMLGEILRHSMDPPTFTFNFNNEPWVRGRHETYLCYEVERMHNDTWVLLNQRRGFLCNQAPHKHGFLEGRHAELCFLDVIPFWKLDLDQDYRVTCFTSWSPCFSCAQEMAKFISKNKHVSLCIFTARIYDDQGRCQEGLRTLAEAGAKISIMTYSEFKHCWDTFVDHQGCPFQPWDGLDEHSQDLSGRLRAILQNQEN
# Aminopeptidase N = molecular target: T4, Aminopeptidase N (Plasmodium falciparum FcB1/Columbia, UniProt O96935); test: malaria alanyl aminopeptidase activity blockers – biochemical, fluorogenic H-Leu-NHMec substrate, 1536-well (AID 1445); design: species or system Plasmodium falciparum 3D7, 3D7
# T4 sequence (O96935 whole entry): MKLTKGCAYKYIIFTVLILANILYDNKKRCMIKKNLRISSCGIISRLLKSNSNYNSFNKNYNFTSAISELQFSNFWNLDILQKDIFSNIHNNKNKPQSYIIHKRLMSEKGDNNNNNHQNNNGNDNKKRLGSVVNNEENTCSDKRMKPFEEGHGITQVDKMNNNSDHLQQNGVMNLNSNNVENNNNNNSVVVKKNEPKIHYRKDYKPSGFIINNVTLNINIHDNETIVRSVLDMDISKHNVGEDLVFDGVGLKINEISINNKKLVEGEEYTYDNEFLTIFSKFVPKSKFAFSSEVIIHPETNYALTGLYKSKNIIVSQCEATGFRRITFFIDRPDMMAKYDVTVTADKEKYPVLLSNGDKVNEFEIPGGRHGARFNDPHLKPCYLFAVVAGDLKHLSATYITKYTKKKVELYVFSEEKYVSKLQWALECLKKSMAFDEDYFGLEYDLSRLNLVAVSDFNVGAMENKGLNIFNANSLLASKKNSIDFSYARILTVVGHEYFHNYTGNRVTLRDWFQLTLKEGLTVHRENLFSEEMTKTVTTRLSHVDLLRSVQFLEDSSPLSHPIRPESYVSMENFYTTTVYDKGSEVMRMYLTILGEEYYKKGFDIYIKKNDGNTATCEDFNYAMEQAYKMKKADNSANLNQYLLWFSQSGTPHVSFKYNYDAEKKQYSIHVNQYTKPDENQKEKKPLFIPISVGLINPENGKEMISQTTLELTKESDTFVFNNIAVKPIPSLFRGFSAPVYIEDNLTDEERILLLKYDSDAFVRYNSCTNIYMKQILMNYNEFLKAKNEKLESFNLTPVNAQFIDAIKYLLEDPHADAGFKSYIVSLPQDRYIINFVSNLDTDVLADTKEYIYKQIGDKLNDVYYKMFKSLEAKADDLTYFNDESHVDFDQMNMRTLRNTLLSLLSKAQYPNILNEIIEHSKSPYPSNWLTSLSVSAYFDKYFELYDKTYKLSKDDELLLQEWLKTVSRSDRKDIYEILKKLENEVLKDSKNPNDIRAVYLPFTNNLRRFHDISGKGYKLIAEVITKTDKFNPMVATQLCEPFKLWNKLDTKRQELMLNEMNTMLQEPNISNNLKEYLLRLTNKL
# Beta-galactosidase = Beta-galactosidase (Escherichia coli, UniProt Q8VNN2); test: detection-enzyme interference by beta-gal modulators – biochemical, E. coli enzyme, set 3, artefact control for CCR6 antagonist project, dose response (AID 504712); format: functional
# Chain of Beta-galactosidase (Q8VNN2 whole entry): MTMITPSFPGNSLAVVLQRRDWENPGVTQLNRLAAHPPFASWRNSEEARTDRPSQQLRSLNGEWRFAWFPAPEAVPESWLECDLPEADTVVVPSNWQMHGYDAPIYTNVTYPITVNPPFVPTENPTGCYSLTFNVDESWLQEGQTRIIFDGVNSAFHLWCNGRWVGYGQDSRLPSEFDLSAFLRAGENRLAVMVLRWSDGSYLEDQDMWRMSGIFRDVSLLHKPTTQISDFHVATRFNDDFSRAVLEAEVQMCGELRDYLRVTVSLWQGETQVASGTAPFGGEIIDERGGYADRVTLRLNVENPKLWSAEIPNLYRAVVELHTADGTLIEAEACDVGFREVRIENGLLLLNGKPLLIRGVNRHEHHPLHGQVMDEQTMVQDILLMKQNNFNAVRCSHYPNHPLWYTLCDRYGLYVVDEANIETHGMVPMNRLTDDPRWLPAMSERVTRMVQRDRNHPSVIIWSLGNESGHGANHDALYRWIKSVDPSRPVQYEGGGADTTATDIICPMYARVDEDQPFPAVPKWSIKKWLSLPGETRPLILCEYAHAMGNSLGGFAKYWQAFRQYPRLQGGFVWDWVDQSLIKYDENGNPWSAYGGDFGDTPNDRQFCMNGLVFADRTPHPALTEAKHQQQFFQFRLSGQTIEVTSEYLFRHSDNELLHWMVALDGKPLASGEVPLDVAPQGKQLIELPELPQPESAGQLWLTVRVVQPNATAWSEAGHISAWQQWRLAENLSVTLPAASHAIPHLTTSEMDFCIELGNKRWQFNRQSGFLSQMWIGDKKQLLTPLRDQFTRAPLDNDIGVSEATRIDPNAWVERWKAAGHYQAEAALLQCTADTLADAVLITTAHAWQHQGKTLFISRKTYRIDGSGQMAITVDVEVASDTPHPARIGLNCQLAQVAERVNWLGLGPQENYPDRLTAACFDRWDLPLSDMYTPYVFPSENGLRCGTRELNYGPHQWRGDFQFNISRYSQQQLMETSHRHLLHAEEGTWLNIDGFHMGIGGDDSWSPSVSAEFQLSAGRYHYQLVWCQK
# Fatty acid synthase [13] = molecular target: T5, Fatty acid synthase (Homo sapiens, UniProt P49327); test: inhibition of human FAS-TE enzyme activity – biochemical, kinetic fluorescence intensity, dose response (AID 624326); format: functional;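 note: rate of fluorescence rise from hydrolysis of a fluorogenic O-methyl fluorescein ester substrate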
# Fatty acid synthase [14] = molecular target: T5, Fatty acid synthase; test: inhibition of human FAS-TE enzyme activity – biochemical, endpoint fluorescence intensity, uHTS hits, dose response (AID 624327); format: functional;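 note: fluorescence from hydrolysis of an O-methyl fluorescein acyl ester substrate by the enzyme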
# Chain of Cytochrome P450 2C19 (P33261 whole entry): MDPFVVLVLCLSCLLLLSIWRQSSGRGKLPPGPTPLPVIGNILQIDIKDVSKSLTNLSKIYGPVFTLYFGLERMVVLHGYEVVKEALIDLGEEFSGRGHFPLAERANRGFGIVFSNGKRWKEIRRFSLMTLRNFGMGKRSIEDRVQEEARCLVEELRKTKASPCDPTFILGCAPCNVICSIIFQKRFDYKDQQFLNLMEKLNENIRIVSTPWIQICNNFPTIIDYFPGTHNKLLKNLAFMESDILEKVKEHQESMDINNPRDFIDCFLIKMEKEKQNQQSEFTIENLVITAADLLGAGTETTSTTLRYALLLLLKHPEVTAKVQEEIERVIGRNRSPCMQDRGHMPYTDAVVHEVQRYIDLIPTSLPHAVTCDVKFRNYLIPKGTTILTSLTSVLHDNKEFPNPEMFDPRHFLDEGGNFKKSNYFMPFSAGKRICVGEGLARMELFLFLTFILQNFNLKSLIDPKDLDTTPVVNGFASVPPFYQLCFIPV
structure (smiles),measurement,setting,value
CC12CC3OS(=O)OC3CC3C4C(C(OCc5ccccc5)C31)C42 (stereo unspecified),AC50,Cytochrome P450 2C19,0.251 µM (inconclusive)
COc1ccc(CN2C(=O)NC(=O)/C(=C/c3ccc([N+](=O)[O-])o3)C2=O)cc1,IC50,Large T antigen,71.7 µM (active)
same,IC50,[1],3.22 µM (active)
CCn1c(SCC(=O)c2ccc(CNC(C)=O)o2)nnc1-c1cccs1,IC50,Estrogen receptor,42.7 µM (not active)
COc1ccc(N2CCN(C(=O)CN(Cc3ccc(Cl)cc3)S(C)(=O)=O)CC2)cc1,EC50,[2],11.3 µM (active)
O=C(N[C@H](C(=O)N1CCC[C@H]1C(=O)NCCc1ccccc1Cl)c1ccccc1)c1ccccc1,EC50,[3],3.78 µM (active)
same,IC50,cells [4],> 29.9 µM (inactive)
same,IC50,[5],5.99 µM (active)
same,EC50,cells [6],> 29.9 µM (inactive)
CC(C)c1ccc2oc(-c3ccc(NC(=O)c4nc[nH]n4)cc3)nc2c1,IC50,cells [7],42.2 µM (active)
same,EC50,[8],> 160 µM (inactive)
same,CC50,[9],> 50 µM (active)
same,EC50,[10],0.04 µM (active)
O=C(CCC1COc2ccccc2O1)NCC1COc2ccccc2O1 (stereo unspecified),EC50,[2],1.77 µM (active)
O=P(Nc1ccccc1Cl)(c1ccccc1)c1nc2c(s1)CCCC2 (stereo unspecified),EC50,[2],5.95 µM (active)
O=C(NC1CC1)c1cc2cc3ccccc3nc2s1,AC50,[11],45.7 µM (active)
CC(=O)OC1CC(C)(C)N(OC(=O)c2ccc(N)cc2)C(C)(C)C1,IC50,Estrogen receptor,26.3 µM (active)
CCN(CC)C(=O)CSc1nc2c(sc(=S)n2-c2ccccc2)c(=O)n1-c1ccc(OC)cc1OC,IC50,[12],51.9 µM (active)
O=C(NCc1ccc2c(c1)OCO2)C1CCN(S(=O)(=O)c2cccs2)CC1,IC50,Aminopeptidase N,26.7 µM (active)
CCOC(=O)c1c(NC(=O)CSc2nnc(CNC(=O)c3ccco3)n2C)sc2c1CCC2,IC50,Estrogen receptor,> 50 µM (not active)
O=[N+]([O-])c1ccc(N2CCCCC2)nc1,AC50,[11],3.98 µM (active)
O=C(CNCCc1ccccc1)N1CCc2ccccc2C1,EC50,[3],1.2 µM (active)
same,IC50,cells [4],> 29.9 µM (inactive)
same,IC50,[5],5.52 µM (active)
same,EC50,cells [6],> 29.9 µM (inactive)
COC(=O)c1c(-c2ccc(C(C)(C)C)cc2)csc1NC(=O)C1C2CCC(O2)C1C(=O)O (stereo unspecified),IC50,Aminopeptidase N,79.5 µM (active)
Cc1nnn(-c2nonc2N)c1C(=O)NNC(=O)c1ccc(Cl)c(Cl)c1,EC50,[3],5.05 µM (active)
same,IC50,cells [4],> 29.9 µM (inactive)
same,IC50,[5],> 29.9 µM (inactive)
same,EC50,cells [6],> 29.9 µM (inactive)
Nc1cccc(C2=Nc3cccc4cccc(c34)N2)c1,IC50,[1],3 µM (active)
O=[N+]([O-])c1ccc(NN=Cc2ccccc2O)nc1,IC50,Beta-galactosidase,46 µM (inactive)
COCCN(C(=O)C(C)C)c1nnc(-c2cccc(C)c2)s1,IC50,cells [7],37.4 µM (active)
same,CC50,[9],> 50 µM (active)
Cc1oc(-c2cccc(Cl)c2)nc1CN1CCC(C(=O)NCc2ccco2)CC1,EC50,[2],5.8 µM (active)
CNC(=S)Nc1sc2c(c1C(=O)OC)CCC2,IC50,[1],1.48 µM (active)
COc1ccc2cc3cc(C(=O)N4CCCCC4C)oc3nc2c1 (stereo unspecified),IC50,cells [7],35.1 µM (active)
same,IC50,Fatty acid synthase [13],2.52 µM (active)
same,CC50,[9],42.4 µM (active)
same,IC50,Fatty acid synthase [14],2.81 µM (active)
O=C(CN1CCC(NC(=O)c2ccccc2)CC1)NCc1ccccc1F,IC50,Aminopeptidase N,39.3 µM (active)
O=C(O)c1cccc(Nc2nc(-c3cccnc3)nc3ccccc23)c1,IC50,Aminopeptidase N,79.2 µM (active)
O=C(O)CCc1ccc(-c2cccs2)n1CCc1ccccc1,EC50,[3],0.62 µM (active)
same,IC50,cells [4],> 29.9 µM (inactive)
same,IC50,[5],5.93 µM (active)
same,EC50,cells [6],> 29.9 µM (inactive)
